Results from PubChem BioAssay AID1259407 (Chemical Carcinogenesis Research Information System (CCRIS), 2018).
Active and inactive are the calls of the source. No rule for the calls is given here.

Tested on: CCRIS mutagenicity, Ames/micronucleus/aberration tests
Assay: CCRIS mutagenicity studies
Source text: The CCRIS database contains chemical records with carcinogenicity, mutagenicity, tumor promotion, and tumor inhibition test results. It was developed by the National Cancer Institute (NCI). Data are derived from studies cited in primary journals, current awareness tools, NCI reports, and other sources. Test results have been reviewed by experts in carcinogenesis and mutagenesis.
CCRIS provides historical information from the years 1985 - 2011. It is no longer updated.
This is an archive assay for CCRIS mutagenicity studies.

[1] = Test System: AMES SALMONELLA TYPHIMURIUM, Strain/Indicator: TA100, Metabolic Activation: NONE, Method: STANDARD PLATE
[2] = Test System: AMES SALMONELLA TYPHIMURIUM, Strain/Indicator: TA98, Metabolic Activation: NONE, Method: STANDARD PLATE

CC[C@@]1(O)C[C@H](O[C@H]2C[C@H](N(C)C)[C@H](O)[C@H](C)O2)c2c(cc3c(c2O)C(=O)c2c(O)cccc2C3=O)[C@H]1C(=O)OC
mutagenic call (Test System: AMES SALMONELLA TYPHIMURIUM, Strain/Indicator: TA102, Metabolic Activation: NONE, Method: STANDARD PLATE): active; positive | mutagenic call (Test System: AMES SALMONELLA TYPHIMURIUM, Strain/Indicator: TA104, Metabolic Activation: NONE, Method: STANDARD PLATE): active; positive

OC1c2ccc3cccnc3c2C2OC2C1O (stereo unspecified)
mutagenic call [1]: active; positive

O=C(O)[C@@H]1Cc2c([nH]c3ccccc23)[C@@H]([C@H]2CCNC2=S)N1
mutagenic call (Test System: AMES SALMONELLA TYPHIMURIUM, Strain/Indicator: TA98, Metabolic Activation: NONE): inactive; negative | mutagenic call (Test System: AMES SALMONELLA TYPHIMURIUM, Strain/Indicator: TA98, Metabolic Activation: S-9): active; positive | mutagenic call (Test System: AMES SALMONELLA TYPHIMURIUM, Strain/Indicator: TA100, Metabolic Activation: NONE): inactive; negative | mutagenic call (Test System: AMES SALMONELLA TYPHIMURIUM, Strain/Indicator: TA100, Metabolic Activation: S-9): inactive; negative

N#CCO
mutagenic call (Test System: AMES SALMONELLA TYPHIMURIUM, Strain/Indicator: TA97, Metabolic Activation: HAMSTER, LIVER, S-9, AROCLOR 1254 (10%), Method: PREINCUBATION): inactive; negative | mutagenic call (Test System: AMES SALMONELLA TYPHIMURIUM, Strain/Indicator: TA97, Metabolic Activation: HAMSTER, LIVER, S-9, AROCLOR 1254 (30%), Method: PREINCUBATION): inactive; negative | mutagenic call (Test System: AMES SALMONELLA TYPHIMURIUM, Strain/Indicator: TA97, Metabolic Activation: NONE, Method: PREINCUBATION): inactive; negative | mutagenic call (Test System: AMES SALMONELLA TYPHIMURIUM, Strain/Indicator: TA97, Metabolic Activation: RAT, LIVER, S-9, AROCLOR 1254 (10 OR 30%), Method: PREINCUBATION): inactive; negative | mutagenic call (Test System: AMES SALMONELLA TYPHIMURIUM, Strain/Indicator: TA98, Metabolic Activation: HAMSTER, LIVER, S-9, AROCLOR 1254 (10%), Method: PREINCUBATION): inactive; negative | mutagenic call (Test System: AMES SALMONELLA TYPHIMURIUM, Strain/Indicator: TA98, Metabolic Activation: HAMSTER, LIVER, S-9, AROCLOR 1254 (30%), Method: PREINCUBATION): inactive; negative | mutagenic call (Test System: AMES SALMONELLA TYPHIMURIUM, Strain/Indicator: TA98, Metabolic Activation: NONE, Method: PREINCUBATION): inactive; negative | mutagenic call (Test System: AMES SALMONELLA TYPHIMURIUM, Strain/Indicator: TA98, Metabolic Activation: RAT, LIVER, S-9, AROCLOR 1254 (10%), Method: PREINCUBATION): inactive; negative | mutagenic call (Test System: AMES SALMONELLA TYPHIMURIUM, Strain/Indicator: TA98, Metabolic Activation: RAT, LIVER, S-9, AROCLOR 1254 (30%), Method: PREINCUBATION): inactive; negative | mutagenic call (Test System: AMES SALMONELLA TYPHIMURIUM, Strain/Indicator: TA100, Metabolic Activation: HAMSTER, LIVER, S-9, AROCLOR 1254 (10%), Method: PREINCUBATION): inactive; negative | mutagenic call (Test System: AMES SALMONELLA TYPHIMURIUM, Strain/Indicator: TA100, Metabolic Activation: HAMSTER, LIVER, S-9, AROCLOR 1254 (30%), Method: PREINCUBATION): inactive; negative | mutagenic call (Test System: AMES SALMONELLA TYPHIMURIUM, Strain/Indicator: TA100, Metabolic Activation: NONE, Method: PREINCUBATION): inactive; negative | mutagenic call (Test System: AMES SALMONELLA TYPHIMURIUM, Strain/Indicator: TA100, Metabolic Activation: RAT, LIVER, S-9, AROCLOR 1254 (10%), Method: PREINCUBATION): inactive; negative | mutagenic call (Test System: AMES SALMONELLA TYPHIMURIUM, Strain/Indicator: TA100, Metabolic Activation: RAT, LIVER, S-9, AROCLOR 1254 (30%), Method: PREINCUBATION): inactive; negative | mutagenic call (Test System: AMES SALMONELLA TYPHIMURIUM, Strain/Indicator: TA1535, Metabolic Activation: HAMSTER, LIVER, S-9, AROCLOR 1254 (10%), Method: PREINCUBATION): inactive; negative | mutagenic call (Test System: AMES SALMONELLA TYPHIMURIUM, Strain/Indicator: TA1535, Metabolic Activation: HAMSTER, LIVER, S-9, AROCLOR 1254 (30%), Method: PREINCUBATION): inactive; negative | mutagenic call (Test System: AMES SALMONELLA TYPHIMURIUM, Strain/Indicator: TA1535, Metabolic Activation: NONE, Method: PREINCUBATION): inactive; negative | mutagenic call (Test System: AMES SALMONELLA TYPHIMURIUM, Strain/Indicator: TA1535, Metabolic Activation: RAT, LIVER, S-9, AROCLOR 1254 (10%), Method: PREINCUBATION): inactive; negative | mutagenic call (Test System: AMES SALMONELLA TYPHIMURIUM, Strain/Indicator: TA1535, Metabolic Activation: RAT, LIVER, S-9, AROCLOR 1254 (30%), Method: PREINCUBATION): inactive; negative

C=C1[C@@H](C)[C@H]2[C@H](Cc3ccccc3)NC(=O)[C@]23OC(=O)/C=C/[C@H](O)CCC[C@@H](C)C/C=C/[C@H]3[C@@H]1O
mutagenic call (End Point: In vivo micronucleus, Test System: Micronucleated, binucleated and multinucleated hepatocytes, Species: Mouse, Strain/Sex: ddY/Male, Route: Intravenous): active; positive for micronucleated cells when agent administered before and after parti

NNC(=O)c1ccncc1
mutagenic call (Test System: AMES SALMONELLA TYPHIMURIUM, Strain/Indicator: G46, Metabolic Activation: HAMSTER, LIVER, HOMOGENATE (HEAT-INACTIVATED), Method: PREINCUBATION): inactive; negative | mutagenic call (Test System: AMES SALMONELLA TYPHIMURIUM, Strain/Indicator: G46, Metabolic Activation: HAMSTER, LIVER, HOMOGENATE, Method: PREINCUBATION): active; positive | mutagenic call (Test System: AMES SALMONELLA TYPHIMURIUM, Strain/Indicator: G46, Metabolic Activation: MOUSE, LIVER, HOMOGENATE, Method: PREINCUBATION): active; positive | mutagenic call (Test System: AMES SALMONELLA TYPHIMURIUM, Strain/Indicator: G46, Metabolic Activation: NONE, Method: STANDARD PLATE): inactive; negative | mutagenic call (Test System: AMES SALMONELLA TYPHIMURIUM, Strain/Indicator: G46, Metabolic Activation: RAT, LIVER, HOMOGENATE, Method: PREINCUBATION): active; positive | mutagenic call (Test System: AMES SALMONELLA TYPHIMURIUM, Strain/Indicator: TA92, Metabolic Activation: NONE, Method: STANDARD PLATE): active; positive | mutagenic call (Test System: AMES SALMONELLA TYPHIMURIUM, Strain/Indicator: TA100, Metabolic Activation: MOUSE, LIVER, S-9, Method: STANDARD PLATE): inactive; negative | mutagenic call [1]: active; positive | mutagenic call (Test System: AMES SALMONELLA TYPHIMURIUM, Strain/Indicator: TA102, Metabolic Activation: RAT, LIVER, S-9, AROCLOR 1254, Method: STANDARD PLATE): inactive; negative | mutagenic call (Test System: AMES SALMONELLA TYPHIMURIUM, Strain/Indicator: TA1535, Metabolic Activation: HAMSTER, LIVER, HOMOGENATE (HEAT-INACTIVATED), Method: PREINCUBATION): inactive; negative | mutagenic call (Test System: AMES SALMONELLA TYPHIMURIUM, Strain/Indicator: TA1535, Metabolic Activation: HAMSTER, LIVER, HOMOGENATE, Method: PREINCUBATION): active; positive | mutagenic call (Test System: AMES SALMONELLA TYPHIMURIUM, Strain/Indicator: TA1535, Metabolic Activation: MOUSE, LIVER, HOMOGENATE, Method: PREINCUBATION): active; positive | mutagenic call (Test System: AMES SALMONELLA TYPHIMURIUM, Strain/Indicator: TA1535, Metabolic Activation: MOUSE, LIVER, POSTMITOCHONDRIAL SUPERNATANT, Method: PREINCUBATION): inactive; negative | mutagenic call (Test System: AMES SALMONELLA TYPHIMURIUM, Strain/Indicator: TA1535, Metabolic Activation: MOUSE, LIVER, S-9, Method: PREINCUBATION): inactive; negative | mutagenic call (Test System: AMES SALMONELLA TYPHIMURIUM, Strain/Indicator: TA1535, Metabolic Activation: NONE, Method: STANDARD PLATE): active; positive | mutagenic call (Test System: AMES SALMONELLA TYPHIMURIUM, Strain/Indicator: TA1535, Metabolic Activation: RAT, LIVER, HOMOGENATE, Method: PREINCUBATION): active; positive

Cn1c(N=[N+]=[N-])nc2ccccc21
mutagenic call [2]: active; positive

Cc1c2ccccc2c(CBr)c2c1ccc1ccccc12
mutagenic call [2]: active; positive | mutagenic call [1]: active; positive
